Measured values from patent publication EP0364941A1, “Branched-chain alkyl esters of 2-(4-(2-piperidino ethoxy)benzoyl)benzoic acid, processes for their preparation and their use as spasmolytic agents” (HOECHST AKTIENGESELLSCHAFT, priority 1988, dated 1990).

Key:
small intestine [1] = assay: Gastrointestinal propulsion (charcoal transport) in mice; format: in vivo
Method: Ref.: J.M.A. Zwagemakers and V. Claassen, Arzneim-Forsch/-Drug Res. 30 (II) Nr.9, p.1517 (1980).
The test compounds I and II were given orally by gavage in a range of 10 to 100 mg/kg doses 30 min before charcoal suspension (0.2 ml/animal, 10% charcoal in 5% gum acacia) in 18 hrs fasted mice (male or female, weight range 18 to 25 g). 30 min after administration of charcoal animals were killed and the extent of charcoal propulsion in the small intestine was measured. The inhibitory activity of test compound on charcoal transport was assessed as percent inhibition compared to length of intestine. For control group 10 ml/kg of saline was given.

[2] = test system: isolated guinea pig ileum; assay: Antispasmodic activity in isolated guinea pig ileum (acetylcholine-induced contraction); format: cell-based
Method: Small intestines obtained from freshly sacrificed guinea pigs (weight range, 200 - 400 g) of either sex were cleaned and stored in tyrode solution. A piece of ileum was mounted in an organ bath containing tyrode solution at 37°C and maintained at a tension of 0.5 to 1.0 g. The solution was continuously aerated with compressed air. After an initial equilibration period, a sub-maximal dose of acetylcholine required for measurable contraction was standardised. Tension changes were monitored using an isotonic strain gauge attached to the tissue and the responses were recorded on a strip chart recorder. Antispasmodic activity of test compounds at different concentrations was followed and the IC₅₀ values were calculated from dose response curves.

Porcine liver esterase = assay: Enzymatic hydrolysis rates by porcine liver esterase; format: in vitro ADME; conditions: test compound 1 mM, pH 8.0, 37°C
Method: Porcine liver esterase (0.5 U = 2 µg) was preincubated in 40 mM Tris-HCl buffer, pH 8.0, at 37°C for 5 min. The reaction was initiated with the addition of the test compound (final concentration, 1 mM) in the final volume of 250 µl. Enzyme reaction was terminated at different time intervals by the addition of 60 µl of 1 M acetic acid. The solution was made alkaline (pH 10.5) by adding 0.4 M NaOH and the alkaline solution was rapidly extracted (three times) with 2.5 ml of chloroform. An aliquot of the aqueous supernatant was diluted with double distilled water and the absorbance was measured at 290 nm. Amount of test compound III (molar extinction = 14,400) formed was calculated.

small intestine [3] = assay: Antispasmodic activity in anaesthetized dog (carbachol or acetylcholine induced intestinal contractions); format: in vivo; conditions: anaesthetised dog
Method: Male mongrel dogs of weight range 10 to 15 kg were anaesthetised with pentobarbitone sodium (35 mg/ kg,i.v.). Slow i.v. infusion of pentobarbitone (5 mg/kg/hour) was given for maintenance anaesthesia. The endotracheal tube was inserted to facilitate spontaneous breathing. Both femoral artery and vein were cannulated respectively for recording blood pressure and administering drugs. After laparotomy, a small portion of small intestine distal to duodenum was isolated and saline filled balloon inserted and the opening was sutured. A fine polyethylene cannula was then inserted into the mesenteric artery which supplies to the area of intestine containing balloon for injection of carbachol or acetylcholine. A Statham pressure transducer was then attached to balloon cannula for recording both circular and longitudinal muscle contractions. All the parameters were recorded on 4 channel Nihon-Kohden recorder. The intestinal contractions were recorded after administering a standard dose of carbachol or acetylcholine (0.5 to 3 µg). Test compounds I and II were given at different doses 3,10 and 20 mg/kg intra-duodenally and spasmolytic activity was assessed at various time intervals. Anti-spasmodic activity was assessed by calculating percent reduction in agonist induced contractions and also noting onset and duration of activity. The test compounds were dissolved in distilled water (1% soln.). Table 3 Test compounds I and II were given at different doses (10, 30, 100, 300 and 1000 µg/kg) intravenously and spasmolytic activity was assessed at different time intervals. Anti-spasmodic activity was assessed by calculating percent reduction in agonist induced contractions. The ID₅₀ value was calculated from the dose response curve.

large Bowel = assay: Motility of the large bowel (colonic motor complex) in conscious dogs; format: in vivo
Description: Male dogs (THG Tierhandelsgesellschaft Rodenbach, Hoe:BEAK (Beagle)) weighing 15 - 20 kg were used in all experiments.
At least 4 weeks prior the experiment the dogs had been equipped with miniaturised strain gage force transducers (T1-T2) (2x4mm), sutured onto the gut at the locations mentioned below. The cables of the transducers were embedded into a cannula which carried the plug for external electric connection. This stainless steel cannula was implanted into the abdominal wall, close below the costal arch. Each transducer was connected to a measuring bridge. The signals were on line stored using a HP 9835 A computer, allowing later analysis of the data. • T1 : Colon ascendens 10 cm aborafrom the ileoceval valve (ICV) • T2 : Colon transversum 25 cm aborad from the ICV
18 hours prior to the experiment food was withdrawn from the animals, water ad libidum. All experiments started between 08:00 and 09:00 am.
The following parameters were determined: The duration of the cycle (min) The duration of the colonic motor complex (CMC) (min) The maximal height of the concentrations (AU: arbitrary units)
Data from the two recording sites (T1-T2) were pooled. […]
For detection of significant differences (p < 0.05) the unpaired t-test was used. Only significant differences were indicated by *.

Structure (SMILES): CC(C)OC(=O)c1ccccc1C(=O)c1ccc(OCCN2CCCCC2)cc1.Cl [Test Compound II, Isopropyl-2-[4-(2-piperidino-ethoxy)-benzoyl]-benzoate hydrochloride]
- Percent Inhibition (small intestine [1]; 10 mg/kg p.o.): 38.0 ± 4.0%
- Percent Inhibition (small intestine [1]; 30 mg/kg p.o.): 41.0 ± 3.0%
- Percent Inhibition (small intestine [1]; 60 mg/kg p.o.): 46.0 ± 5.0%
- Guinea pig ileum Duration of action [2]: > 7.0 min
- IC50 ([2]; Cavia porcellus, read-out: Guinea pig ileum IC₅₀): 0.01 µg/mL
- µmol test compound III formed per mg protein per ml (Porcine liver esterase; Time 0.0 hours): 0.00 µmol per mg protein per ml
- µmol test compound III formed per mg protein per ml (Porcine liver esterase; Time 0.5 hours): 0.05 µmol per mg protein per ml
- µmol test compound III formed per mg protein per ml (Porcine liver esterase; Time 2.0 hours): 0.10 µmol per mg protein per ml
- µmol test compound III formed per mg protein per ml (Porcine liver esterase; Time 3.5 hours): 0.10 µmol per mg protein per ml
- Duration (small intestine [3]; 3 mg/kg intra-duodenal): 35 min
- On-set (small intestine [3]; 3 mg/kg intra-duodenal): 7 min
- Percent Inhibition (small intestine [3]; 3 mg/kg intra-duodenal): 54%
- Duration (small intestine [3]; 10 mg/kg intra-duodenal): 78 min
- On-set (small intestine [3]; 10 mg/kg intra-duodenal): 6.5 min
- Percent Inhibition (small intestine [3]; 10 mg/kg intra-duodenal): 83%
- ED50 (small intestine [3]; Canis lupus familiaris, iv, read-out: ID₅₀): 0.01 mg/kg
- Duration of action (small intestine [3]; intravenous administration): > 60 min
- effect on colonic motility (large Bowel; 1 mg/kg i.g.): uneffective
- Duration CMC (large Bowel; 1 mg/kg intragastrically): 6 ± 2 min
- Duration Cycle (large Bowel; 1 mg/kg intragastrically): 28 ± 11 min
- Max.heigth of CMC (large Bowel; 1 mg/kg intragastrically): 50±25 AU
- Total number of spikes (large Bowel; 1 mg/kg intragastrically): 5.6±1.7 n/CMC
- Duration CMC (large Bowel; 3 mg/kg intragastrically): 11 ± 3 min
- Duration Cycle (large Bowel; 3 mg/kg intragastrically): 136 ± 42 min
- Max.heigth of CMC (large Bowel; 3 mg/kg intragastrically): 40±23 AU
- Total number of spikes (large Bowel; 3 mg/kg intragastrically): 5.5±1.0 n/CMC
- duration of complete inhibition of colonic motility (CMC) (large Bowel; 4 mg/kg i.g.): about 2 hours
